Patent US8618082B2, “Lupeol anti-tumor agent and uses thereof” (Wisconsin Alumni Research Foundation, priority 2004, dated 2013)

How the values were obtained:
epidermal iNOS protein = assay: TPA-induced epidermal iNOS protein expression (western blot); format: in vivo, mouse
Method: FIG. 4. Inhibitory effect of Lupeol on TPA-induced epidermal ODC, iNOS and COX-2 protein expression in CD-1 mice: At different times after treatment, the animals were sacrificed, epidermal protein lysate was prepared, and ODC and COX-2 protein expression were determined. Equal loading of protein was confirmed by stripping the immunoblot and reprobing it for β-actin. The immunoblots shown here are representative of three independent experiments with similar results. The values above each lane indicate relative density of the band normalized to β-actin.
The animals were shaved on the dorsal side of the skin, divided into four groups and treated topically on the shaved area with either 0.4 ml vehicle (acetone), or TPA (3.2 nmol/0.4 ml acetone/animal, v/v), or Lupeol (1 or 2 mg/0.2 ml acetone/animal, w/v) followed 30 min later with TPA (3.2 nmol/0.2 ml acetone/animal). Animals were sacrificed at different times point i.e. 6, 12, 24 and 48 h post TPA treatment. […]
Epidermis from the whole skin was separated as described earlier (Katiyar et al., 1999) and was homogenized in ice-cold lysis buffer [50 mM Tris-HCl, 150 mM NaCl, 1 mM EGTA, 1 mM EDTA, 20 mM NaF, 100 mM Na3VO4, 0.5% NP-40, 1% Triton X-100, 1 mM PMSF (pH 7.4)] with freshly added protease inhibitor cocktail, Protease Inhibitor Cocktail Set III (Calbiochem, La Jolla, Calif., USA). […] The protein content in the lysates was measured by DC BioRad assay (BioRad Laboratories, Hercules, Calif.) as per the manufacturer's protocol.
For western blot analysis, 40 μg of the protein was resolved over 8-12% polyacrylamide gels and transferred to a nitrocellulose membrane. […] This was followed by incubation with anti-mouse or anti-rabbit secondary antibody horse-radish peroxidase (Amersham Life Sciences, Inc., USA) for 1 h and then washed several times and detected by chemiluminescence ECL kit, (Amersham Life Sciences, Inc., USA) and autoradiography using XAR-5 film obtained from Eastman Kodak Co. (Rochester, N.Y., USA). […]

[1] = test system: I-κBα protein and p65-subunit of NFκB in AsPC-1 cells; assay: Phosphorylation of IκBα and NFκB p65 in AsPC-1 cells; format: cell-based
Text: FIG. 24 depicts effect of Lupeol treatment on the phosphorylation of I-κBα protein and p65-subunit of NFκB transcriptional factor in AsPC-1 cells.

[2] = test system: androgen-sensitive prostatic cancer cells (LNCaP); assay: Viability of LNCaP cells, MTT assay; format: cell-based, human; settings: for cell death of LNCaP cells: 48 hours
Method: (§1) FIG. 10 depicts effect of Lupeol on viability of androgen-sensitive prostatic cancer cells (LNCaP). Cells were treated with specified concentrations of Lupeol for 48 h, and cell viability was determined by MTT assay. The values are represented as the percent viable cells where vehicle-treated cells were regarded as 100% viable. Data represents mean value of percent viable cells±S.E of three independent experiments.

[3] = test system: normal human prostate epithelial cells (PrEC); assay: Viability of normal human prostate epithelial cells, MTT assay; format: cell-based; settings: 48 hours
Method: as §1, with “FIG. 9” for “FIG. 10”, “of normal human prostate epithelial” for “of androgen-sensitive prostatic cancer”, “cells (PrEC).” for “cells (LNCaP).”, “MTT (3-[4,5-dimethylthiazol-2-yl]-2,5-diphenyl tetrazoliumbromide)” for “MTT”

CD-1 mouse = assay: Preliminary dose study, primary biomarkers of tumor promotion; format: in vivo; settings: 0.25 and 0.5 mg of Lupeol per animal, topical; data not shown
Method: Studies from the inventors' laboratory and by other have shown that TPA application to mouse skin results in cutaneous edema (Katiyar et at, 1996; Liang et at, 2002). In the present study, the inventors evaluated the protective effects of topical application of Lupeol in TPA-mediated cutaneous edema in CD-1 mouse. The inventors tested four doses 0.25, 0.5, 1 and 2 mg of Lupeol per animal in the inventors' preliminary studies. […] The CD-1 mice were topically treated with Lupeol (1 and 2 mg/mouse) and 30 min later were topically treated with TPA (3.2 nmole/mouse). […] At least four determinations were made at different dorsal skin sites per mouse in each group. The data represents the mean±SE of eight mice (*p<0.01 vs TPA).

[4] = test system: p38, Erk1/2, p21, Cyclin D-2 in AsPC-1 cells; assay: MAP kinase phosphorylation and p21, Cyclin D-2 expression in AsPC-1 cells; format: cell-based
Text: FIG. 25 depicts effect of Lupeol treatment on the phosphorylation of p38 and Erk1/2 in MAP kinase signaling and p21 and Cyclin D-2 protein expression in AsPC-1 cells.

Which results are given for `C=C(C)[C@@H]1CC[C@]2(C)CC[C@]3(C)[C@H](CC[C@@H]4[C@@]5(C)CC[C@H](O)C(C)(C)[C@@H]5CC[C@]43C)[C@@H]12` [Lupeol, Lup-20(29)-en-3β-ol]?
inhibition against TPA-induced epidermal iNOS protein expression (densitometry) (epidermal iNOS protein; Lupeol 2 mg/animal): 74%; epidermal iNOS protein expression after Lupeol alone (epidermal iNOS protein; Lupeol alone 2 mg): did not produce any change; phosphorylation of IkBα [1]: significant reduction; phosphorylation of NFkB [1]: reduction in the phosphorylation of NFkB; cell death of LNCaP cells ([2]; 40-60 μM Lupeol): 75-90%; cell viability of LNCaP cells ([2]; Lupeol 5-30 μM, 48 and 72 h, time and dose dependent): significant inhibition of cell viability; cell death of LNCaP cells ([2]; Lupeol up to 30 μM): 70%; cell death of normal prostate epithelial cells ([3]; 60 μM Lupeol): 30%; cell death of normal prostate epithelial cells ([3]; Lupeol up to 50 μM): did not exhibit any significant cell death; effect on primary biomarkers of tumor promotion (CD-1 mouse): did not exhibit any significant effect; Cyclin-D2 protein expression [4]: decrease in Cyclin-D2 protein expression; expression of p-21 [4]: increase in the expression of p-21; phosphorylation of Erk 1/2 [4]: increase in the phosphorylation of Erk 1/2; phosphorylation of p38 [4]: significant reduction
